One molecule from US9873883B2, “Glyphosate resistant plants and associated methods” (Dow AgroSciences LLC, priority 2012, dated 2018) can be followed below.

The subject of assay [1] is T0 corn. The assay is described as follows: Postemergence herbicide tolerance in dgt-14 transformed T0 corn. Type of assay: in vivo, Zea mays. Particulars: example written in present tense. The protocol: T0 events are allowed to acclimate in the greenhouse and are grown until two to four new, normal looking leaves emerge from the whorl (i.e., plants that transition from tissue culture to greenhouse growing conditions). Plants are grown at 27° C. under 16 hour light:8 hour dark conditions in the greenhouse. The plants are then treated with commercial formulations of Durango DMA™ (containing the herbicide glyphosate) with the addition of 2% w/v ammonium-sulfate. Herbicide applications are made with a track sprayer at a spray volume of 187 L/ha, 50-cm spray height. T0 plants are sprayed with a range of glyphosate from 280-4480 g ae/ha glyphosate, which is capable of significant injury to untransformed corn lines. A lethal dose is defined as the rate that causes >95% injury to the B104 inbred.
Selected T0 plants are selfed or backcrossed for further characterization in the next generation. Additional experiments include a 100 plant progeny test which is conducted on chosen dgt-14 lines containing the T1 plants. All plants are sprayed with 140-1120 g ae/ha glufosinate or 105-1680 g ae/ha glyphosate as previously described. […] At fourteen DAT, resistant and sensitive plants are counted to determine the percentage of lines that segregated as a single locus, dominant Mendelian trait (3R:1S) as determined by Chi square analysis. […]

For assay [2], the system named is untransformed B104 maize line. The assay is described as follows: Growth inhibition dosage response in maize callus culture. Type of assay: cell-based, Zea mays.
In assay [3] the target is T1, Mariprofundus ferrooxydans EPSP synthase DGT-14 v1, native wild type (GENBANK ZP_01452683; SEQ ID NO:17) (Mariprofundus ferrooxydans, UniProt Q0EYT4).
T1 construct: pET28, N-terminal 6xHis and thrombin site, E. coli, IMAC purified
The assay is described as follows: In vitro kinetic assay (inorganic phosphate production, malachite green). Type of assay: biochemical. The settings on record: IC50 (glyphosate). The protocol: One enzyme that was identified was DGT-14 (GENBANK ACC NO: ZP_01452683) from Manprofundus ferrooxydans. […] One of these enzymes, DGT-11 (SEQ ID NO:5), contains a natural alanine at an analogous position within the EPSP synthase enzyme as that of the G96A mutation which was introduced into the E. coli version of the enzyme.
Site directed mutagenesis was carried out on the synthetic dgt-14 v6 to confirm the role of the alanine that was introduced at the glycine residue of amino acid residue 101. THE QUICK CHANGE II® kit from Stratagene (Santa Clara, Calif.) was used to perform the mutagenesis. The following primers were designed to make the amino acid switch. […]
Cell pellets from 1 L cultures were resuspended in 20-30 mL Buffer A (50 mM HEPES pH 7.5, 150 mM KCl, 2 mM DTT, 1 mM EDTA, 20 mM imidazole, and 5% glycerol). […] Samples were typically diluted 1:50 and the UV-visible spectrum was recorded from 240-700 nm on a Cary50 Bio UV-visible spectrophotometer. A theoretical extinction coefficient was then used to calculate the protein concentration based on the absorbance at 280 nm (ExPASy, Geneva, Switzerland).
The enzyme activities of wild-type (WT) and mutant DGTs were measured by inorganic phosphate (Pi) production in a modified procedure described by Lanzetta et al., (1979). […]

Assay [4] concerns Arabidopsis transformed with TraP5 v1::dgt-14 (pDAB102787). Kind of assay: Postemergence glyphosate tolerance, visual injury. The settings on record: 2 weeks after application. It is filed as in vivo, Arabidopsis thaliana.
The subject of assay [5] is Arabidopsis transformed with TraP13 v2::dgt-14 (pDAB105529). Kind of assay: Postemergence glyphosate tolerance, visual injury. Type of assay: in vivo, Arabidopsis thaliana. The settings on record: 2 weeks after application.

Each structure is given as a SMILES string.

Regarding `O=C(O)CNCP(=O)(O)O` [glyphosate, N-(phosphonomethyl)glycine], in assay [1], the “glyphosate concentration controlling non-transformed plants” value was ≥ 280 g ae/ha. The “glyphosate concentrations sufficient to inhibit cell growth” value in assay [2] is reported as ≥ 0.25 mM. For the same molecule, the IC50 was 440 µM in assay [3] (at 60 μM PEP) and > 20200 µM in assay [3] (at 1 mM PEP). Also, the “Visual % injury (Ave)” value is reported as 90.0% in assay [4] (T2, 840 g ae/ha); 86.3% in assay [4] (T3, 840 g ae/ha); 1.3% in assay [5] (T2, 840 g ae/ha); 0.0% in assay [5] (T3, 840 g ae/ha).
